{"source": "paper PMC8619046", "about": "“ABCB1 and ABCG2 Control Brain Accumulation and Intestinal Disposition of the Novel ROS1/TRK/ALK Inhibitor Repotrectinib, While OATP1A/1B, ABCG2, and CYP3A Limit Its Oral Availability” (Pharmaceutics, 2021)", "key": {"[1]": {"test_system": "T1, human ABCB1", "T1 construct": "expressed in transfected cells; host or cells: MDCK-II cells stably transduced with hABCB1 cDNA (made in the authors' institute)", "experiment": "Transepithelial transport, MDCK-II cells transduced with hABCB1", "type": "in vitro ADME", "conditions": "MDCK-MDR1, pH 7.4, with zosuquidar 5 µM, MDCK-II hABCB1, 5 µM, + zosuquidar 5 µM, read-out: efflux transport ratio r", "source_text": "(§1) Polarized Madin-Darby Canine Kidney (MDCK-II) cells (ECACC 00062107) stably transduced with either human (h) ABCB1, hABCG2 or mouse (m) Abcg2 cDNA were generated in our institute between 1995–2005. The proper identity and functionality, such as highly characteristic growth and drug transporter properties, including inhibitor sensitivity, were regularly checked in these epithelial cells. Mycoplasma routinely tested negative in these cells. The passage number was 10–15 when used in the transport experiments.\n(§2) Transepithelial transport experiments were performed as previously described with 12-well plates (Transwell 3414, Corning Inc., Kennebunk, ME, USA) containing microporous polycarbonate membrane filters (3.0 µm pore size, 12 mm diameter). […]\n(§3) After pre-incubation with 5 µM zosuquidar (ABCB1 inhibitor) and/or 5 µM Ko143 (ABCG2/Abcg2 inhibitor) in both compartments (when appropriate) for 1 h, the transport phase was initiated (t = 0) by replacing the medium in apical and basolateral compartments with fresh DMEM with 10% FBS and the appropriate inhibitor(s), and repotrectinib at 5 µM in the donor compartment. […] The active transport ratio r, calculated by dividing the amount of apically directed drug transport by basolaterally directed drug translocation after 8 h, was used to assess active transport of repotrectinib."}, "[2]": {"molecular_target": "T2, human ABCB1 (Homo sapiens, UniProt P08183)", "T2 construct": "expressed in transfected cells; host or cells: MDCK-II cells stably transduced with hABCB1 cDNA (made in the authors' institute)", "T2 sequence (P08183 whole entry)": "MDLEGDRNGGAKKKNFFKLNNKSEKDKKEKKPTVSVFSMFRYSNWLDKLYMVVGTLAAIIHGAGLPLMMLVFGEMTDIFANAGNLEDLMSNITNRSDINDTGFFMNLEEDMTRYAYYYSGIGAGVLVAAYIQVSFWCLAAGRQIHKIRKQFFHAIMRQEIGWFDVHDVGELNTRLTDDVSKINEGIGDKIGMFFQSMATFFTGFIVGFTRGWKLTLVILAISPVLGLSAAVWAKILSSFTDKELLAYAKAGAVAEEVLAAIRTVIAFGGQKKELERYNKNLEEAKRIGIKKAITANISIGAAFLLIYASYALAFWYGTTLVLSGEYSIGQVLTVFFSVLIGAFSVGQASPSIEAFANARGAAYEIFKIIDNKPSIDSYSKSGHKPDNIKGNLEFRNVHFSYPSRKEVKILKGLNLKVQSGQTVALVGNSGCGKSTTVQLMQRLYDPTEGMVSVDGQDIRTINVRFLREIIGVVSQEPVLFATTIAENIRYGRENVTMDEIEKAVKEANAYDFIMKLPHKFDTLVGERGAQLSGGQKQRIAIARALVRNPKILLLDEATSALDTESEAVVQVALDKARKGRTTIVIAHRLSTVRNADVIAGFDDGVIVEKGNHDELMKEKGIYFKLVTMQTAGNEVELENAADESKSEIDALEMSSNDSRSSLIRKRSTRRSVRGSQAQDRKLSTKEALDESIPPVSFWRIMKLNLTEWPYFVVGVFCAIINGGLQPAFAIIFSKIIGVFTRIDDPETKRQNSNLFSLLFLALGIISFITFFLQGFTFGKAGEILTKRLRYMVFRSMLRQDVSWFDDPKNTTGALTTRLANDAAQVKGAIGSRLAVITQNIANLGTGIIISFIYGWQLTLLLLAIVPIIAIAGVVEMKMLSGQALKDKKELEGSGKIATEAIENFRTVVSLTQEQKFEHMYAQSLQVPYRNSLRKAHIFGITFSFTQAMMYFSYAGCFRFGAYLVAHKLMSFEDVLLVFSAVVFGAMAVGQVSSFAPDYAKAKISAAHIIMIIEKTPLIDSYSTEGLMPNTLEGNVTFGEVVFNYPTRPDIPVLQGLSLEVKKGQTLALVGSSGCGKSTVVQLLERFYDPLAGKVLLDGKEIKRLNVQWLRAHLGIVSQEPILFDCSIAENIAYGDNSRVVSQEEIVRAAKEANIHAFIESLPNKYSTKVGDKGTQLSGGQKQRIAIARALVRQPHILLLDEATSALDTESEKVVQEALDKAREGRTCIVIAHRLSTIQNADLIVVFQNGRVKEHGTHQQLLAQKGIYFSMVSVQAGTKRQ", "experiment": "Transepithelial transport, MDCK-II cells transduced with hABCB1", "type": "in vitro ADME", "conditions": "MDCK-MDR1, pH 7.4, MDCK-II hABCB1, 5 µM, no inhibitor, read-out: efflux transport ratio r", "source_text": "as §1, §2, §3"}, "[3]": {"test_system": "T3, endogenous canine ABCB1", "T3 construct": "the low-level endogenous canine ABCB1 present in MDCK-II cells; host or cells: parental MDCK-II cells (canine kidney)", "experiment": "Transepithelial transport, parental MDCK-II cells", "type": "in vitro ADME", "conditions": "dog, pH 7.4, with zosuquidar 5 µM, 5 µM, + zosuquidar 5 µM, read-out: efflux transport ratio r", "source_text": "as §1, §2, §3"}, "[4]": {"molecular_target": "T4, endogenous canine ABCB1 (Canis lupus familiaris, UniProt C0KKU9)", "T4 construct": "the low-level endogenous canine ABCB1 present in MDCK-II cells; host or cells: parental MDCK-II cells (canine kidney)", "T4 sequence (C0KKU9 1-1281)": "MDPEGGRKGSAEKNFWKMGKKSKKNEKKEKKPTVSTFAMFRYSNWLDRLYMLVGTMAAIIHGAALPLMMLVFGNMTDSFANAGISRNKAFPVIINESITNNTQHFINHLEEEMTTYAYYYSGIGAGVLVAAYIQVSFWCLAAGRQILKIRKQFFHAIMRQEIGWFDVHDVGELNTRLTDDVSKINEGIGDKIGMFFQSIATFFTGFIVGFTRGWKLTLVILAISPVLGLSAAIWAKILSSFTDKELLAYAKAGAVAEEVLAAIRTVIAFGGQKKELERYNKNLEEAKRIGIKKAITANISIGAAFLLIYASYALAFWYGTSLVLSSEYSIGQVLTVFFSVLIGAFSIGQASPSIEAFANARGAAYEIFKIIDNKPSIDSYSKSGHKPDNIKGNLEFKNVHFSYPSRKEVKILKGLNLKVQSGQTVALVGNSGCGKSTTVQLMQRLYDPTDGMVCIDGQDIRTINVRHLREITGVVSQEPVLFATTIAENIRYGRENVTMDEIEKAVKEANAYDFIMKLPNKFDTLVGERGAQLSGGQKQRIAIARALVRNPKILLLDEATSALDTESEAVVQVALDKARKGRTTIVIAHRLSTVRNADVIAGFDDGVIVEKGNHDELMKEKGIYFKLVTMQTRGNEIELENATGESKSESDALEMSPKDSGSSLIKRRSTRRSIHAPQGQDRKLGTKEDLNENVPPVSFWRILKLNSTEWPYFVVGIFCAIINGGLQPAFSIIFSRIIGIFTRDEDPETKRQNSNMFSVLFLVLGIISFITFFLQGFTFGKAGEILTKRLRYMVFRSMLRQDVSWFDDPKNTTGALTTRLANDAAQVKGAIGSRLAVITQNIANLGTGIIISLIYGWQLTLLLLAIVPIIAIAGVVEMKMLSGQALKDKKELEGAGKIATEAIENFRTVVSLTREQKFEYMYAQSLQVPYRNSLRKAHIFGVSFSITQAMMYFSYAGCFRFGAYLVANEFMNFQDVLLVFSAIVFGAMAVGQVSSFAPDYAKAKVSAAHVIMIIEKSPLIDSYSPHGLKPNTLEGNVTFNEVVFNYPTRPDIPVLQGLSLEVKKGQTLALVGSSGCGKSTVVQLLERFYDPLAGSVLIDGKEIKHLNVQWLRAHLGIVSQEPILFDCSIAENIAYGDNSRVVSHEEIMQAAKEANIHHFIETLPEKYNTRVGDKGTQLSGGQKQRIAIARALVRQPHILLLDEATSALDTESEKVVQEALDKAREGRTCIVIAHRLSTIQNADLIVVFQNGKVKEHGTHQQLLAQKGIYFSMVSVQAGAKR", "experiment": "Transepithelial transport, parental MDCK-II cells", "type": "in vitro ADME", "conditions": "dog, pH 7.4, repotrectinib 5 µM, no inhibitor, read-out: efflux transport ratio r", "source_text": "as §1, §2, §3"}, "[5]": {"experiment": "Oral plasma pharmacokinetics compared across experiments and mouse strains", "type": "in vivo, mice", "source_text": "Mice with similar average ages (and body weights) were randomly allocated in experimental groups as far as possible. Mice were maintained in a temperature-controlled and specific pathogen-free environment with a 12-h light and 12-h dark cycle and they received a standard diet (Transbreed, SDS Diets, Technilab-BMI, Someren, The Netherlands) and acidified water ad libitum. […] Given the objective main readout (repotrectinib plasma and tissue concentrations as measured by LC-MS/MS), no blinding method was applied.\nRepotrectinib was dissolved in dimethyl sulfoxide (DMSO) at a concentration of 50 mg/mL. […]\nA sensitive and specific liquid chromatography-tandem mass spectrometry method using protein precipitation pre-treatment was adopted to quantify the concentration of repotrectinib in DMEM medium, plasma samples and tissue homogenates.\nA non-compartmental model using the PKSolver add-in program for Microsoft Excel was adopted to calculate the pharmacokinetic parameters of repotrectinib. Oral availability was assessed by the plasma area under the curve (AUC), calculated using repotrectinib plasma concentration-time curves with the linear trapezoidal rule without extrapolating the infinity. […]"}}, "data": [{"compound": "C[C@H]1CNC(=O)c2cnn3ccc(nc23)N[C@H](C)c2cc(F)ccc2O1", "note": "[repotrectinib]", "values": [{"measurement": "efflux ratio at 8 h, 5 µM", "setting": "[1]", "value": 1.1}, {"measurement": "efflux ratio at 8 h, 5 µM", "setting": "[2]", "value": 13.5}, {"measurement": "efflux ratio at 8 h, 5 µM", "setting": "[3]", "value": 1}, {"measurement": "efflux ratio at 8 h, 5 µM", "setting": "[4]", "value": 2.5}, {"measurement": "Tmax", "setting": "[5]; plasma, 10 mg/kg, all tested mouse strains, oral administration", "value": "~30", "unit": "min"}, {"measurement": "plasma levels, female relative to male mice", "setting": "[5]; same oral dose 10 mg/kg, Figure 3 vs Figure S1", "value": "about 1.6 fold"}]}]}
